Values of other authors, collected in patent US20260085040A1, “AMINO ACID AND CA[…] DERIVATIVES” (priority 2022, published 2026).

Experiments:
[1] = controlled clinical environment, subjects with OCD
[2] = 10 patients with alcohol dependence per DSM-IV

CN(C)CCc1c[nH]c2cccc(OP(=O)(O)O)c12 [psilocybin]
Core OCD symptoms [1]: acute reductions in core OCD symptoms in several subjects | Safety of administration [1]: safely administered | Participants with biologically verified 7-day point-prevalence abstinence (6-month follow up): eighty | Participants biologically verified as being abstinent (12-month follow-up): 67% | Participants abstinent (follow-up 2.5 years after the target quit date): 75% | Alcohol use post psilocybin administration [2]: significant decrease in alcohol use
